Assay results from ChEMBL document CHEMBL1201862, “PubChem BioAssay data set” (2004).
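48-hour exposure; five concentrations; linearly interpolated endpoints. The concentration for 50% growth inhibition is given as GI50.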 The source made the active and inactive calls. No stated cut-off is given here; in the data, active = GI50 up to about 1.1 µM and inactive = higher.

Columns and labels:
Assay in all cases: NCI anticancer screen, dose series, 48 h
ACHN = system: ACHN
CCRF-CEM = system: CCRF-CEM
SK-OV-3 = system: SK-OV-3
COLO 205 = system: COLO 205
SNB-75 = system: SNB-75
Hs-578T = system: Hs-578T
OVCAR-5 = system: OVCAR-5
SR = system: SR
TK-10 = system: TK-10
MDA-N = system: MDA-N
U-251 = system: U-251
M14 = system: M14
SNB-19 = system: SNB-19
PC-3 = system: PC-3
RXF 393 = system: RXF 393
SK-MEL-2 = system: SK-MEL-2
HOP-92 = system: HOP-92
OVCAR-3 = system: OVCAR-3
UACC-62 = system: UACC-62

Measured: GI50

CNC1c2ccccc2C(=O)c2cc3c(cc21)OCCOCCOCCOCCO3 (stereo unspecified)
inactive: ACHN > 100 µM | CCRF-CEM 17.1 µM | SK-OV-3 > 100 µM | COLO 205 > 100 µM | SNB-75 > 100 µM | Hs-578T > 100 µM | OVCAR-5 > 100 µM | SR 28.7 µM | TK-10 > 100 µM | MDA-N 96.8 µM | U-251 > 100 µM | M14 > 100 µM | SNB-19 > 100 µM | PC-3 > 100 µM

CC1=C(C(=O)NCCCN(CCO)CCO)CC(C(=O)NCCCN(CCO)CCO)=C(C)N1
inactive: ACHN 97.1 µM | RXF 393 26.4 µM | CCRF-CEM 19.1 µM | SK-OV-3 > 100 µM | COLO 205 > 100 µM | SK-MEL-2 > 100 µM | HOP-92 54.6 µM | SNB-75 15.2 µM | Hs-578T 29.1 µM | OVCAR-3 > 100 µM | OVCAR-5 > 100 µM | TK-10 > 100 µM | MDA-N 86.1 µM | U-251 > 100 µM | M14 > 100 µM | UACC-62 > 100 µM | SNB-19 66.4 µM | PC-3 59.8 µM

O=C(c1ccccc1Br)C(F)(F)F
inactive: ACHN > 100 µM | CCRF-CEM > 100 µM | SK-OV-3 > 100 µM | COLO 205 88.9 µM | SK-MEL-2 > 10 µM | SNB-75 > 100 µM | Hs-578T > 100 µM | OVCAR-3 > 100 µM | OVCAR-5 > 100 µM | SR > 100 µM | TK-10 > 100 µM | MDA-N > 100 µM | U-251 > 100 µM | M14 > 100 µM | UACC-62 > 100 µM | SNB-19 > 100 µM | PC-3 > 100 µM

COc1ccc(/C(C#N)=C/c2ccc(OC)c(OC)c2)cc1
inactive: ACHN > 100 µM | RXF 393 > 100 µM | CCRF-CEM > 100 µM | SK-OV-3 > 100 µM | COLO 205 > 100 µM | SK-MEL-2 > 100 µM | HOP-92 > 100 µM | SNB-75 56.9 µM | Hs-578T > 100 µM | OVCAR-3 > 100 µM | OVCAR-5 > 100 µM | TK-10 > 100 µM | MDA-N > 100 µM | U-251 > 100 µM | M14 > 100 µM | UACC-62 > 100 µM | SNB-19 > 100 µM | PC-3 > 100 µM

Oc1[nH]c(Nc2cc(Cl)cc(Cl)c2)nc2ncnc1-2
inactive: ACHN > 75 µM | RXF 393 > 75 µM | CCRF-CEM > 75 µM | SK-OV-3 > 75 µM | COLO 205 > 75 µM | SK-MEL-2 > 75 µM | HOP-92 > 75 µM | SNB-75 > 75 µM | Hs-578T 17.9 µM | OVCAR-3 > 75 µM | OVCAR-5 > 75 µM | TK-10 > 75 µM | MDA-N > 75 µM | U-251 > 75 µM | M14 > 75 µM | UACC-62 > 75 µM | SNB-19 > 75 µM | PC-3 > 75 µM

CC(=O)OCCn1c(Cc2ccc(C)cc2)nn(C(C)=O)c1=O
inactive: ACHN > 100 µM | SK-OV-3 > 100 µM | COLO 205 > 100 µM | SK-MEL-2 > 100 µM | HOP-92 > 100 µM | Hs-578T > 100 µM | OVCAR-3 > 100 µM | OVCAR-5 > 100 µM | TK-10 > 100 µM | MDA-N > 100 µM | U-251 > 100 µM | M14 > 100 µM | UACC-62 > 100 µM | SNB-19 > 100 µM | PC-3 > 100 µM

COc1cc(O)c(/C=N/N=C(\N)NO)c(OC)c1
inactive: ACHN 9.14 µM | RXF 393 8.3 µM | CCRF-CEM 5.57 µM | SK-OV-3 > 10 µM | COLO 205 > 10 µM | SK-MEL-2 > 10 µM | HOP-92 > 10 µM | SNB-75 1.56 µM | Hs-578T > 10 µM | OVCAR-3 5.5 µM | OVCAR-5 > 10 µM | TK-10 > 10 µM | MDA-N > 10 µM | U-251 > 10 µM | M14 > 10 µM | UACC-62 9.71 µM | SNB-19 > 10 µM | PC-3 6.18 µM

CC1=C2C3=C(C)C(=O)C(C)(C)CC[C@@]3(C)[C@]2(C)CCC(C)(C)C1=O
inactive: ACHN > 100 µM | RXF 393 > 100 µM | CCRF-CEM > 100 µM | SK-OV-3 > 100 µM | COLO 205 > 100 µM | SNB-75 > 100 µM | Hs-578T > 100 µM | OVCAR-3 > 100 µM | OVCAR-5 > 100 µM | SR > 100 µM | TK-10 > 100 µM | MDA-N > 100 µM | U-251 > 100 µM | M14 > 100 µM | UACC-62 > 100 µM | SNB-19 > 100 µM | PC-3 > 100 µM

O=c1[nH]c(=O)n(C2CC(O)C(CO)O2)cc1OCC1CCCCC1 (stereo unspecified)
inactive: ACHN > 100 µM | RXF 393 > 100 µM | CCRF-CEM > 100 µM | SK-OV-3 > 100 µM | COLO 205 > 100 µM | SNB-75 > 100 µM | Hs-578T > 100 µM | OVCAR-3 > 100 µM | OVCAR-5 > 100 µM | SR > 100 µM | TK-10 > 100 µM | MDA-N > 100 µM | U-251 > 100 µM | M14 > 100 µM | UACC-62 > 100 µM | SNB-19 > 100 µM | PC-3 > 100 µM

CC(=O)Oc1ccccc1C(=O)Nc1ncc([N+](=O)[O-])s1 [NITAZOXANIDE]
inactive: ACHN 20.4 µM | RXF 393 4.42 µM | SK-OV-3 14.7 µM | COLO 205 12.7 µM | SK-MEL-2 16.3 µM | HOP-92 3.22 µM | SNB-75 10.2 µM | Hs-578T 9.2 µM | OVCAR-3 5.71 µM | OVCAR-5 29.9 µM | TK-10 16.1 µM | MDA-N 27.3 µM | U-251 19.4 µM | M14 15.9 µM | UACC-62 4.33 µM | SNB-19 17.9 µM | PC-3 9.53 µM

CN1C/C(=C\c2cccs2)C2=NN(C)C(c3cccs3)C2C1 (stereo unspecified)
inactive: ACHN > 100 µM | RXF 393 > 100 µM | CCRF-CEM 72.8 µM | SK-OV-3 > 100 µM | COLO 205 > 100 µM | SK-MEL-2 24 µM | HOP-92 20.5 µM | Hs-578T > 100 µM | OVCAR-3 77.8 µM | OVCAR-5 > 100 µM | TK-10 > 100 µM | MDA-N > 100 µM | U-251 22.8 µM | M14 97.7 µM | UACC-62 > 100 µM | SNB-19 > 100 µM | PC-3 19 µM

O=C(NCCN1CCCCC1)c1cccc(I)c1
inactive: ACHN > 100 µM | RXF 393 > 100 µM | CCRF-CEM > 100 µM | SK-OV-3 > 100 µM | HOP-92 94.2 µM | SNB-75 55.2 µM | Hs-578T > 100 µM | OVCAR-3 > 100 µM | OVCAR-5 > 100 µM | SR > 100 µM | TK-10 > 100 µM | U-251 > 100 µM | M14 72.9 µM | UACC-62 > 100 µM | SNB-19 > 100 µM | PC-3 > 100 µM

N#CCc1n[nH]c2nc(SCc3ccccc3)nc(N3CCCCC3)c12
inactive: ACHN 21.2 µM | RXF 393 17.1 µM | CCRF-CEM 17.3 µM | SK-OV-3 26.4 µM | COLO 205 17.9 µM | SK-MEL-2 20.7 µM | HOP-92 16.6 µM | SNB-75 18.2 µM | Hs-578T 21.4 µM | OVCAR-3 20.7 µM | OVCAR-5 20.2 µM | TK-10 23.1 µM | U-251 18.7 µM | M14 19.4 µM | SNB-19 18.9 µM | PC-3 18.8 µM

COc1ccc(N2C(=O)C3c4[nH]c5ccc(C)cc5c4C4CCC(c5ccccc5)CC4C3C2=O)cc1 (stereo unspecified)
inactive: ACHN 32.6 µM | RXF 393 12.6 µM | CCRF-CEM 4.9 µM | SK-OV-3 18.9 µM | COLO 205 > 100 µM | SK-MEL-2 28.5 µM | HOP-92 14.6 µM | SNB-75 4.02 µM | Hs-578T 6.84 µM | OVCAR-3 > 100 µM | OVCAR-5 > 100 µM | SR 5.41 µM | TK-10 28.6 µM | U-251 12.9 µM | M14 47.1 µM | UACC-62 22.6 µM | SNB-19 14.3 µM | PC-3 > 100 µM

O=c1[nH]nc(Cc2ccc(Cl)cc2)n1CCO
inactive: ACHN > 100 µM | SK-OV-3 > 100 µM | COLO 205 > 100 µM | SK-MEL-2 > 100 µM | HOP-92 > 100 µM | Hs-578T > 100 µM | OVCAR-3 > 100 µM | OVCAR-5 > 100 µM | TK-10 > 100 µM | MDA-N > 100 µM | U-251 > 100 µM | M14 > 100 µM | UACC-62 > 100 µM | SNB-19 > 100 µM | PC-3 > 100 µM

CCOC(=O)C1CCCN1C(=O)c1ccccc1Cl (stereo unspecified)
inactive: ACHN > 100 µM | RXF 393 > 100 µM | CCRF-CEM > 100 µM | HOP-92 75.9 µM | SNB-75 > 100 µM | Hs-578T > 100 µM | OVCAR-3 > 100 µM | OVCAR-5 > 100 µM | SR > 100 µM | TK-10 > 100 µM | MDA-N > 100 µM | U-251 > 100 µM | M14 > 100 µM | UACC-62 22 µM | SNB-19 > 100 µM
